Data reported in US12097174B2, “Methods and agents that enhance myogenic progenitor cell engraftment” (President and Fellows of Harvard College, priority 2018, dated 2024).
“Also recorded” adds a separate entry of the source.

Assays:
[1] = test system: Zebrafish myogenic progenitor cells (ZeMPCs); experiment: Limiting dilution engraftment assay (ELDA): cells treated ex vivo, transplanted into adult zebrafish, imaged at 7 dpt; assay type: in vivo
Procedure: Donor cells were derived from embryos that contained a GFP cassette driven by the promoter for mylz2, a muscle-specific structural protein. Recipients were optically clear, immunocompromised adult prkdc−/− zebrafish. To perform a limiting dilution assay, three doses (n=100, 200, and 400 cells) were administered per treatment (n=10 engraftment events per treatment-dose combination). The estimated engrafting cell frequency was calculated using the Extreme Limiting Dilution Analysis (ELDA, Hu et. al. 2009), which provides the most likely estimate (MLE) of engrafting cell frequency.
Given that this group of 230 lipids is too many to be examined in mice, transplantation efficiency was instead examined via limit-dilution assays in 15 recipient zebrafish per compound after a brief (4 hour) ex vivo chemical exposure. Positive hits from this primary screening were rescreened in replicate transplantation experiments incorporating dose response testing.
Lipids are frequently found to enhance cell migration and homeostasis in blood and muscle tissue (Cencetti et al., 2014; Lahvic et al., 2018; Li et al., 2015; Oh et al., 2016), and so it was elected to screen mainly bioactive lipids in efforts to identify compounds that enhance ZeMPCs engraftment efficiency in vivo. Myogenic progenitor cells were treated for 4 hours with one of the 188 unique lipid compounds contained in the ICCB Known Bioactives Library. Compound-treated cells were then harvested and transplanted intramuscularly into both flanks of 5 different casper recipient fish, with transplants performed at each of 3 transplanted cell doses (25, 75 or 150 cells). In these studies, recipient fish received split-dose irradiation of 15 Gy at 2 days and 1 day prior to transplantation to suppress any immune responses to the transplanted cells. Engraftment efficiency was measured by imaging casper recipients at 7 dpt (FIG. 18A). […] For this secondary screening approach, cells were transplanted into prkdc^D3612ls casper fish, which are deficient in mature T and B cells, and assayed engraftment efficiency in the recipient fish 7 days post-transplantation. Two compounds were identified, lysophosphatidic acid (LPA) and niflumic acid (NFA), which increased ZeMPC engraftment efficiency in both of these assay systems (FIG. 12B).
Lipids from the ICCB Known Bioactives Library (enzolifesciences.com/BML-2840/iccb-known-bioactives-library) were diluted at a 1:100 ratio in transplantation media (zESC medium without bFGF and FBS) and added to prewashed in vitro expanded muscle cells. NFA (Cayman and Santa Cruz Biotechnology) and LPA (Cayman and Santa Cruz Biotechnology) were used for the secondary confirmation screening experiments. […] 4- to 8-month-old casper recipients received split-dose irradiation of 15 Gy each, either 2 days or 1 day before transplantation. For LDA screening, cells were transplanted into each side of 5 pre-irradiated casper recipient fish or 5 non-irradiated prkdc-mutant recipient zebrafish. At 7 dpt, the recipients were anaesthetized using a previously described method (Dang et al., 2016) and imaged using a fluorescent stereo microscope (Leica M165 FC). Successful engraftment was defined as the presence of GFP+ fibers. Variation in different experiments is caused by inherent variability in the in vitro ZeMPC derivation procedure, which results in differences in engrafting cell frequency across different derivation attempts. To mitigate the impact of such experimental variation on screening results, only LDA results for cells derived from the same cultures were compared. Comparison to a vehicle-treated experimental control was included in every transplantation experiment. Next, the chemical treated cell potency and vehicle-treated cell potency was measured using the Extreme Limiting Dilution Analysis (ELDA) software (Hu and Smyth, 2009). The ratio of the treated cell potency and vehicle-treated cell potency determine the engraftment efficiency fold increase value.

[2] = test system: ZeMPCs; experiment: Calcium imaging in Fura-2, AM treated ZeMPCs (single-cell imaging); assay type: cell-based, zebrafish; settings: 10 μM NFA, 5 μM LPA, 10 μM ionomycin; 10-20 seconds after loading
Procedure: Fura-2, AM treated ZeMPCs were exposed to 10 μM NFA, 5 μM LPA, 10 μM lonomycin (as a positive control) and DMSO (as vehicle control) to visualize their effect on intracellular calcium ion concentration using single-cell imaging. […] Scale bar 50 μm.
(§1) The ZeMPCs and C2C12 cells were incubated with Fura-2, AM (Thermo Fisher Sci F1225), a cell permeant fluorescent calcium ion indicator, for 45 minutes at 28.5° C. and 37° C., respectively, followed by imaging with Celldiscoverer7 Microscope (Zeiss). 20 seconds after imaging initiation the treatment was added to the cells and continued for a total of 2-3 minutes.

[3] = test system: C2C12 cells; experiment: Calcium imaging in Fura-2, AM treated C2C12 cells (single-cell imaging); assay type: cell-based, mouse; settings: 10 μM NFA, 5 μM LPA; 10-20 seconds after loading
Procedure: Fura-2, AM treated C2C12 cells were exposed to 10 μM NFA, 5 μM LPA or DMSO as vehicle control to visualize the effect on intracellular calcium ion concentration using single-cell imaging. […] Scale bar 50 μm.
as §1

Row | Structure (SMILES) | engraftment frequency ([1]; concurrent injection of donor cells with 10 uM MFA) | estimated engrafting cell frequency / engraftment ([1]; donor cells treated 2 hours with 10 uM MFA before transplantation, vs vehicle, p=0.0367) | engraftment efficiency of treated ZeMPCs ([1]; prkdc-mutant zebrafish, vs vehicle-treated controls) | intracellular calcium ion concentration [2] | intracellular calcium ion concentration [3]
1 | Cc1ccc(Cl)c(Nc2ccccc2C(=O)O)c1Cl [MFA, meclofenamic acid] | not sufficient to increase engraftment frequency | increase the engraftment capacity; also recorded: optimally increase engraftment; also recorded: higher | – | – | –
2 | C[C@H](CCC(=O)O)C[C@H](C)C[C@H](C)C(=O)/C=C(\O)[C@H](C)C[C@H](C)C/C=C/[C@@H](C)[C@@H](O)[C@@H](C)[C@@H](O)C[C@@H]1CC[C@@](C)([C@H]2CC[C@@](C)([C@@H](C)O)O2)O1 [ionomycin] | – | – | increased the engraftment efficiency | increase | increase
